Columns and labels:
AP-1 = details: nuclear extracts, 32P-labelled AP-1 oligonucleotide probe; cited from earlier work
[1] = system: perfused human ocular anterior segment; assay: human ocular perfusion organ culture model, aqueous outflow rate; details: for Flow Rate (% of Time 0) (Mean ± SEM, n = 6): t-BHQ 10 μM
Method: The study was performed as follows: Human donor eyes less than 24 hours post mortem were used. The globe was sectioned equatorially followed by the removal of vitreous, lens, zonules, iris, and most of the ciliary body. The anterior segment was then mounted on a perfusion dish, perfused with cell culture medium at a constant hydrostatic pressure of 10 mm Hg (Johnson et al., Human trabecular meshwork organ culture: A new method, Invest Ophthalmol Vis Sci., volume 28, pages 945-953 (1987); Erickson-Lamy et al., Outflow facility studies in the perfused human ocular anterior segment, Exp. Eye Res., volume 52, pages 723-731 (1991); and Clark et al., Dexamethasone-induced ocular hypertension in perfusion cultured human eyes, Invest. Ophthalmol. Vis. Sci., volume 36, pages 478-489 (1995)). The flow rate of the perfusate was measured by weighing the reservoir at predetermined periods. After 2 to 4 days of equilibrium period, one eye of each of the donor pair was perfused with the test compound, t-BHQ (10 μM), while the other was perfused with vehicle (control).

What does the source list for `CC(C)(C)c1cc(O)ccc1O` [t-BHQ, tert-butylhydroquinone]?
AP-1 DNA binding activity (AP-1 Activator) (AP-1): demonstrated to be AP-1 Activators; basal flow rate at time 0 ([1]; drug-treated eyes, time 0 (basal)): (1) The basal flow rate at time 0 for vehicle-treated eyes was 3.55 ± 1.00 μL/min, and that for drug-treated eyes was 4.09 ± 0.63 μL/min.; Flow Rate (% of Time 0) (Mean ± SEM, n = 6) ([1]; 0 hours (baseline)): 100.0 % of Time 0; Flow Rate (% of Time 0) (Mean ± SEM, n = 6) ([1]; 4 hours after treatment): 105.8 ± 5.4 % of Time 0; Flow Rate (% of Time 0) (Mean ± SEM, n = 6) ([1]; 24 hours after treatment): 102.9 ± 3.9 % of Time 0; Flow Rate (% of Time 0) (Mean ± SEM, n = 6) ([1]; 48 hours after treatment): 105.2 ± 10.1 % of Time 0; Flow Rate (% of Time 0) (Mean ± SEM, n = 6) ([1]; 72 hours after treatment): 111.8 ± 11.8 % of Time 0; Flow Rate (% of Time 0) (Mean ± SEM, n = 6) ([1]; 96 hours after treatment): 120.9 ± 16.4 % of Time 0; Flow Rate (% of Time 0) (Mean ± SEM, n = 6) ([1]; −4 hours (before treatment)): 97.0 ± 4.0 % of Time 0

— patent US20060142379A1, “Use of AP-1 activators to treat glaucoma and ocular hypertension” (priority 1999, published 2006)
